How the values were obtained:
Assay type in all cases: in vivo
[1] = system: red mites (Dermanyssus gallinae); experiment: Test Example 1: Control Effect 1 on Red Mites, Pasteur pipette contact test, 72 hours; conditions: for Ratio of dead and affected mites: 72 hours, unfed adult red mites
Description: The tip of a Pasteur pipette was sealed with Parafilm, and a methanol solution of the compound A, or each pesticide (another pesticide) (single agent) described in the left columns of Tables 2, 4, and 6 described below, or a mixture (mixed agent) of the compound A and each pesticide described in the left column of Tables 2, 4, and 6 described below at a predetermined concentration was poured into the pipette through an upper portion thereof. One minute later, the Parafilm at the tip was detached, and the liquid agent was discharged. After the pipette was air dried, absorbent cotton was inserted to an upper end of the pipette, and 20 unfed adult red mites (Dermanyssus gallinae) were released into the pipette. After the tip was sealed with Hemato-Seal, the pipette was stored in the dark in an incubator at a temperature of 27 to 28° C. and a humidity of 50 to 60%. […] Then, the ratio (%) of dead and affected mites was calculated according to the following formula. The ratio (%) of dead and affected mites={(the number of dead mites+the number of affected mites)/(the number of survived mites+the number of affected mites+the number of dead mites)}×100

[2] = system: red mites (Dermanyssus gallinae); experiment: Test Example 3: Control Effect 3 on Red Mites, Pasteur pipette contact test, 3 hours; conditions: unfed adult red mites
Description: The tip of a Pasteur pipette was sealed with Parafilm, and a methanol solution of the compound represented by the formula (11), the compound represented by the formula (12), or flupyrimin (single agent), or a mixture (mixed agents) of the compound represented by the formula (11) or the compound represented by the formula (12) and flupyrimin at a predetermined concentration was poured into the pipette from an upper portion thereof. One minute later, the Parafilm at the tip was removed, and the liquid agent was discharged. After the pipette was air dried, absorbent cotton was inserted to an upper end of the pipette, and 20 unfed adult red mites (Dermanyssus gallinae) were released into the pipette. After the tip was sealed with Hemato-Seal, the pipette was stored in the dark in an incubator at a temperature of 27 to 28° C. and a humidity of 50 to 60%. After 3 hours had passed since the treatment, the mites were observed under a stereomicroscope to determine whether the mites were dead or alive and whether the mites were affected. Then, the ratio (%) of dead and affected mites was calculated according to the following formula. The ratio (%) of dead and affected mites={(the number of dead mites+the number of affected mites)/(the number of survived mites+the number of affected mites+the number of dead mites)}×100

[3] = system: red mites (Dermanyssus gallinae); experiment: Test Example 2: Control Effect 2 on Red Mites, Pasteur pipette contact test, 3 hours; conditions: unfed adult red mites
Protocol: One minute later, the Parafilm at the tip was detached, and the liquid agent was discharged. […] Then, the ratio (%) of dead and affected mites was calculated according to the following formula.

[4] = Dermanyssus gallinae, 72 h, read-out: Ratio of dead and affected mites

Compound: CNC(=O)Oc1cccc2c1OC(C)(C)O2 [Bendiocarb, bendiocarb]
- pest or weed control at 50 ppm [1, 4]: 30.5%

Compound: CNC(=O)Oc1cccc2ccccc12 [Carbaryl, carbaryl]
- pest or weed control at 50 ppm [1, 4]: 46.6%

Compound: CC1(C)[C@H](C(=O)O[C@H](C#N)c2cccc(Oc3ccccc3)c2)[C@@H]1C=C(Br)Br [Deltamethrin, deltamethrin]
- pest or weed control at 50 ppm [1, 4]: 75.8%

Compound: COP(=S)(OC)Oc1ccc([N+](=O)[O-])c(C)c1 [Fenitrothion, fenitrothion]
- pest or weed control at 200 ppm [1, 4]: 71.8%

Compound: CCC(C)c1ccccc1OC(=O)NC (stereo not drawn) [Fenobucarb, fenobucarb]
- pest or weed control at 50 ppm [1, 4]: 43.5%

Compound: O=C(N=c1ccccn1Cc1ccc(Cl)nc1)C(F)(F)F [Flupyrimin, flupyrimin]
- Ratio of dead and affected mites ([2]; single agent 50 ppm): 48.8%
- Ratio of dead and affected mites ([2]; single agent 200 ppm): 48.5%
- Ratio of dead and affected mites ([2]; single agent 1000 ppm): 40.9%
- Ratio of dead and affected mites ([1]; single agent 50 ppm): 65.3%
- Ratio of dead and affected mites ([1]; single agent 200 ppm): 58.6%
- Ratio of dead and affected mites ([1]; single agent 1000 ppm): 83.2%
- Ratio of dead and affected mites ([1]; single agent 5000 ppm): 75.0%

Compound: CCc1nc2ccc(F)c(F)c2c(OC(=O)C2CC2)c1C [Formula (11)]
- Ratio of dead and affected mites ([3]; single agent 5 ppm): 53.7%
- Ratio of dead and affected mites ([3]; single agent 10 ppm): 53.4%
- Ratio of dead and affected mites ([3]; single agent 20 ppm): 62.9%
- Ratio of dead and affected mites ([2]; single agent 10 ppm): 53.4%
- Ratio of dead and affected mites ([2]; single agent 20 ppm): 62.9%

Compound: CCc1nc2ccc(F)c(F)c2c(OC(=O)OC)c1C [Formula (12)]
- Ratio of dead and affected mites ([3]; single agent 10 ppm): 50.0%
- Ratio of dead and affected mites ([3]; single agent 20 ppm): 65.5%
- Ratio of dead and affected mites ([2]; single agent 20 ppm): 65.5%

Compound: COC(=O)Oc1c(C)c(C)nc2ccc(F)c(F)c12 [Formula (13)]
- Ratio of dead and affected mites ([3]; single agent 10 ppm): 89.9%

Compound: CC1(C)C(C=C(Cl)Cl)C1C(=O)OCc1cccc(Oc2ccccc2)c1 (stereo not drawn) [Permethrin, permethrin]
- pest or weed control at 50 ppm [1, 4]: 49.6%

Compound: CC(C)=CC1C(C(=O)OCc2cccc(Oc3ccccc3)c2)C1(C)C (stereo not drawn) [Phenothrin, phenothrin]
- pest or weed control at 500 ppm [1, 4]: 65.2%

Compound: CNC(=O)Oc1ccccc1OC(C)C [Propoxur, propoxur]
- pest or weed control at 200 ppm [1, 4]: 77.9%

Compound: CC(C)=CC1C(C(=O)OCN2C(=O)C3=C(CCCC3)C2=O)C1(C)C (stereo not drawn) [Tetramethrin, tetramethrin (phthalthrin)]
- pest or weed control at 10 ppm [1, 4]: 39.8%

Compound: COP(=O)(OC)C(O)C(Cl)(Cl)Cl (stereo not drawn) [Trichlorfon, trichlorfon]
- pest or weed control at 200 ppm [1, 4]: 84.7%

Compound: abamectin
- Ratio of dead and affected mites ([1]; single agent 50 ppm): 69.9%

— US12419306B2, “Mesostigmata mite control composition” (MEIJI SEIKA PHARMA CO., LTD., priority 2018, dated 2025)
